Measured values taken from ChEMBL document CHEMBL1201862, “PubChem BioAssay data set” (2004).
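All cell lines were grown in 96-well plates and treated with compound for 48 hours. GI50 marks 50% less growth.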 The source made the active and inactive calls. Cut-off read from the data, not from the text of the source: active = GI50 up to about 1.1 µM and inactive = higher.

How the values were obtained:
Test in all cases: NCI-60 cell line screen, 48 h
[1] = system: HL-60
[2] = system: RPMI-8226
[3] = system: KM12
[4] = system: HCT-15
[5] = system: SF-539
[6] = system: EKVX
[7] = system: SN12C
[8] = system: Hs-578T
[9] = system: LOX IMVI
[10] = system: OVCAR-5
[11] = system: MCF7
[12] = system: SK-MEL-28
[13] = system: OVCAR-3
[14] = system: SK-MEL-5
[15] = system: TK-10
[16] = system: NCI-H522
[17] = system: HOP-62
[18] = system: HCC 2998
[19] = system: NCI/ADR-RES
[20] = system: HOP-92
[21] = system: COLO 205
[22] = system: MDA-MB-435
[23] = system: SR
[24] = system: NCI-H226
[25] = system: DU-145
[26] = system: UO-31
[27] = system: IGROV-1
[28] = system: SK-MEL-2
[29] = system: PC-3
[30] = system: HT-29
[31] = system: K562
[32] = system: SNB-19
[33] = system: NCI-H23
[34] = system: 786-0
[35] = system: RXF 393
[36] = system: ACHN
[37] = system: CCRF-CEM
[38] = system: SW-620
[39] = system: OVCAR-8
[40] = system: MOLT-4
[41] = system: M14
[42] = system: SK-OV-3
[43] = system: NCI-H460
[44] = system: MDA-MB-231
[45] = system: SF-268
[46] = system: A498
[47] = system: UACC-257
[48] = system: U-251
[49] = system: SF-295
[50] = system: CAKI-1
[51] = system: T47D
[52] = system: OVCAR-4
[53] = system: Malme-3M
[54] = system: MDA-N
[55] = system: A549
[56] = system: SNB-75
[57] = system: UACC-62

## CC(=O)OC12c3ccccc3-c3ccccc3C1C(C(=O)O)C2C(=O)O (centres undefined)
[1]
  GI50: > 10 µM (inactive)
[2]
  GI50: > 10 µM (inactive)
[3]
  GI50: > 10 µM (inactive)
[4]
  GI50: > 10 µM
[5]
  GI50: > 10 µM (inactive)
[6]
  GI50: > 10 µM (inactive)
[7]
  GI50: > 10 µM (inactive)
[8]
  GI50: > 10 µM (inactive)
[9]
  GI50: > 10 µM (inactive)
[10]
  GI50: > 10 µM (inactive)
[11]
  GI50: > 10 µM (inactive)
[12]
  GI50: > 10 µM (inactive)
[13]
  GI50: > 10 µM (inactive)
[14]
  GI50: > 10 µM (inactive)
[15]
  GI50: > 10 µM (inactive)
[16]
  GI50: > 10 µM (inactive)
[17]
  GI50: > 10 µM (inactive)
[18]
  GI50: > 10 µM (inactive)
[19]
  GI50: > 10 µM (inactive)
[20]
  GI50: > 10 µM (inactive)
[21]
  GI50: > 10 µM (inactive)
[22]
  GI50: 3.52 µM (inactive)
[23]
  GI50: > 10 µM (inactive)
[24]
  GI50: > 10 µM (inactive)
[25]
  GI50: > 10 µM (inactive)
[26]
  GI50: > 10 µM (inactive)
[27]
  GI50: > 10 µM (inactive)
[28]
  GI50: > 10 µM (inactive)
[29]
  GI50: > 10 µM (inactive)
[30]
  GI50: > 10 µM (inactive)
[31]
  GI50: > 10 µM (inactive)
[32]
  GI50: > 10 µM (inactive)
[33]
  GI50: > 10 µM (inactive)
[34]
  GI50: > 10 µM (inactive)
[35]
  GI50: > 10 µM (inactive)
[36]
  GI50: > 10 µM (inactive)
[37]
  GI50: > 10 µM (inactive)
[38]
  GI50: > 10 µM (inactive)
[39]
  GI50: > 10 µM (inactive)
[40]
  GI50: > 10 µM (inactive)
[41]
  GI50: > 10 µM (inactive)
[42]
  GI50: > 10 µM (inactive)
[43]
  GI50: > 10 µM (inactive)
[44]
  GI50: > 10 µM (inactive)
[45]
  GI50: > 10 µM (inactive)
[46]
  GI50: > 10 µM (inactive)
[47]
  GI50: > 10 µM (inactive)
[48]
  GI50: > 10 µM (inactive)
[49]
  GI50: > 10 µM (inactive)
[50]
  GI50: > 10 µM (inactive)
[51]
  GI50: > 10 µM (inactive)
[52]
  GI50: > 10 µM (inactive)
[53]
  GI50: 1.2 µM (inactive)

## C[n+]1c(-c2ccc(/C=N\Nc3ccnc(N/N=C/c4ccc(-c5cn6ccsc6[n+]5C)cc4)n3)cc2)cn2ccsc21
[1]
  GI50: 24.2 µM (inactive)
[2]
  GI50: 4.65 µM (inactive)
[3]
  GI50: 15.8 µM (inactive)
[4]
  GI50: 64.4 µM
[5]
  GI50: 11.6 µM (inactive)
[6]
  GI50: 24.8 µM (inactive)
[7]
  GI50: 27.1 µM (inactive)
[8]
  GI50: 84.1 µM (inactive)
[10]
  GI50: 16.7 µM (inactive)
[54]
  GI50: 2.96 µM (inactive)
[11]
  GI50: 34.8 µM (inactive)
[13]
  GI50: > 100 µM (inactive)
[14]
  GI50: 10.6 µM (inactive)
[15]
  GI50: 20.3 µM (inactive)
[16]
  GI50: > 100 µM (inactive)
[17]
  GI50: 18.1 µM (inactive)
[18]
  GI50: 37.2 µM (inactive)
[19]
  GI50: 51.2 µM (inactive)
[20]
  GI50: 18.3 µM (inactive)
[21]
  GI50: 27.6 µM (inactive)
[22]
  GI50: 2.24 µM (inactive)
[23]
  GI50: 12.6 µM (inactive)
[55]
  GI50: 31.3 µM (inactive)
[24]
  GI50: 16.4 µM (inactive)
[56]
  GI50: 34 µM (inactive)
[25]
  GI50: 27.8 µM (inactive)
[26]
  GI50: 20 µM (inactive)
[27]
  GI50: 11.2 µM (inactive)
[29]
  GI50: 48.3 µM (inactive)
[30]
  GI50: 9.93 µM (inactive)
[31]
  GI50: 8.71 µM (inactive)
[32]
  GI50: 37.6 µM (inactive)
[33]
  GI50: 11.5 µM (inactive)
[34]
  GI50: 10.9 µM (inactive)
[35]
  GI50: 18.3 µM (inactive)
[36]
  GI50: 32.5 µM (inactive)
[37]
  GI50: 18.3 µM (inactive)
[38]
  GI50: 32.7 µM (inactive)
[39]
  GI50: 27.4 µM (inactive)
[40]
  GI50: 24.2 µM (inactive)
[41]
  GI50: 4.95 µM (inactive)
[42]
  GI50: > 100 µM (inactive)
[43]
  GI50: 23 µM (inactive)
[44]
  GI50: 15.2 µM (inactive)
[46]
  GI50: 17.1 µM (inactive)
[47]
  GI50: 17.7 µM (inactive)
[48]
  GI50: 32.6 µM (inactive)
[50]
  GI50: 22.7 µM (inactive)
[57]
  GI50: 24.4 µM (inactive)
[52]
  GI50: 58.1 µM (inactive)
[53]
  GI50: 29.7 µM (inactive)
